Patent US11628146B2, “Estrogen receptor ligand treatment for neurodegenerative diseases” (The Regents of the University of California, priority 2014, dated 2023)
“Also recorded” adds a separate entry of the source.

What was measured:
[1] = system: spinal cords of C57BL/6 females with EAE; experiment: Spinal cord neuropathology (immunohistochemistry) in EAE; format: in vivo, mouse; details: vs vehicle treated EAE
Protocol: Histological Preparation. Mice were exposed to a lethal dose of isoflurane and perfused transcardially with ice-cold 1×PBS for 8-15 min, followed by 10% formalin for 10-15 min. Spinal cords and brains were dissected and submerged in 10% formalin overnight at 4° C., followed by 30% sucrose in PBS for 24 h. Tissues were embedded in […] solution for cryostat sectioning then post-fixed overnight in 10% formalin and cryoprotected in 30% sucrose. The embedded tissues were stored in −80° C. after flash frozen in dry ice. 40 μm thick free-floating spinal cord cross-sections, and sagittal brain sections were obtained with a microtome b cryostat (model HM505E) at −20° C. Tissues were collected serially and stored in 1×PBS with 1% sodium azide in 4° C. until immunohistochemistry.
Immunofluorescence. Prior to histological staining, […] free-floating sections were thoroughly washed with 1×PBS to remove residual sodium azide. In the case of anti-MBP labeling, tissue sections were processed with an additional 1 hour incubation with 5% glacial acetic acid in 100-proof ethanol at room temperature (RT). After washing tissue sections were permeabilized with 0.3% TritonX-100 and 2% normal goat serum in 1×PBS for 30 minutes at room temperature and blocked with 10% normal goat serum in 1×PBS for 1 hour. Tissues were then incubated with primary antibodies overnight in 4° C. The following primary antibody (Ab) were used: Rat anti-MBP (Millipore) at 1:1000 dilutions, Rabbit anti-NF200 (Sigma Aldrich) at 1:750 dilutions, Rabbit anti-beta-APP (Life Technologies) at 1:200 dilutions, Mouse anti-NeuN at 1:1000 dilutions (Millipore), Rabbit anti-PSD95, and Rabbit anti-Synapsin 1 at 1:500 dilutions (Millipore), and Rat anti-CD45 at 1:1500 dilutions (Millipore). The next day tissues were washed and incubated with secondary antibodies conjugated to Cy5 or Cy3 (Millipore) for 1 hour at room temperature. A nuclear stain DAPI (2 ng/mL; Molecular Probes) was added 10 minutes prior to final washes after secondary Ab incubation. Sections were mounted on slides, allowed to semi-dry, and cover slipped in fluoromount G (Fisher Scientific). IgG-control experiments were performed for all primary Ab, and only non-immunoreactive tissues under these conditions were analyzed.
Chromagen Immunohistochemistry. […] Tissues were then incubated with primary antibodies overnight in 4° C. The following primary antibodies were used: Rat anti-CD3 at 1:2000 dilutions (BD Pharmingen), anti-Calbindin D28K at 1:1000 dilutions (Millipore), and Rabbit anti-Iba1 at 1:10000 dilutions (Wako Chemicals), were added for 2 hour at room temperature, and then placed in 4° C. overnight. Tissue sections then followed with secondary Ab labeling at 1:1000 dilutions (Vector labs) for 1 hour at room temperature and then with Avidin-Biotin Conjugation solution (Vector Labs) for 1 hour at room temperature. Tissue sections were treated with DAB peroxidase substrate (Vector labs) according to manufacturer instructions. IgG-control experiments were performed for all primary Ab, and only non-immunoreactive tissues under these conditions were analyzed.
Microscopy and Quantification. Three spinal cord cross-sections at the C5-12 level from each mouse (n=3-6) were captured under microscope at 10× magnification. To quantify demyelination in the spinal cord and cerebellum, white matter was manually delineated on the basis of DAPI staining, and MBP staining intensity was calculated and reported in the sampled area. Axonal damage was assessed by counting beta-APP^+ cells in a confocal 10× microscope in spinal cord. Axonal densities were calculated by counting the number of NF200^+ or NeuN^+ neuronal cells in a 10× confocal image in the sampled area of the captured tissue section. Cerebellar Purkinje (Calbindin^+) cells were manually counted using a brightfield 10× microscope over the entire sagittal cerebellum. […]

[2] = system: female C57BL/6 mice with EAE; experiment: In vivo longitudinal MRI of brain volumes in EAE; parameters: species or system mouse
Protocol: MRI Acquisition. Mice were anesthetized with isofluorane and their heads secured with bite and ear bars. Respiration rate was monitored and the mice were maintained at 37° C. using a circulating water pump. In vivo magnetic resonance imaging was performed using a 200 mm horizontal bore 7.0 T Bruker imaging spectrometer with a micro-imaging gradient insert with a maximum gradient strength of 100 G/cm and 30 mm birdcage RF coil (Bruker Instruments, Billerica, Mass.). An actively decoupled quadrature surface coil array was used for signal reception and a 72-mm birdcage coil was used for transmission. Images were acquired and reconstructed using ParaVision 5.1 software. Imaging parameters were as follows: rapid-acquisition with relaxation enhancement (RARE) sequence, matrix dimensions=256×128×64; field of view=3.84 cm×1.92 cm×0.96 cm; repetition time (TR)=3500 ms; apparent time to echo (apparent TE)=32 ms; echo train length=16; total scan time=37 mins. Spatial resolution was 150 μm^3 per voxel.
MRI Analysis. Images were skull-stripped using the Brain Surface Extractor (BSE) and residual non-brain signal was removed by a single operator manually editing the masks using BrainSuite 11a and bias-field inhomogeneities removed using the N3 correction. After inhomogeneity correction, a minimum deformation atlas (MDA) was produced. Images were spatially and intensity normalized to the MDA using a rigid-body transformation and an intensity rescaling cost function in Alignlinear (AIR). This process permits the comparison of images in a standard space correcting for both gross positional and intensity differences, yet preserving anatomically significant local changes. Following creation of this atlas, cerebral cortices and cerebella were manually labeled on the atlas. The labels were then warped onto the individual spatially normalized images to produce standardized estimates of gray matter volumes in individual subjects. All automated image processing was performed using the LONI Pipeline Processing Environment on an 8-processor core Mac Pro computer (Apple, Cupertino, Calif.).
Cerebral cortex and cerebellum labels were based on the Mouse Atlas Project 2003 mouse brain atlas. […] Importantly, this label contained the somatosensory regions (primary and secondary) and the motor cortex (primary and secondary). Additional anatomical information was obtained from the Franklin and Paxinos mouse brain atlas (Franklin and Paxinos, 2008).
Statistics. Global and regional brain volume changes in EAE mice and control animals were compared with repeated measures ANOVAs using SPSS 22 (IBM, Armonk, N.Y.). […] Regression analysis and Welch's t-tests were performed in Excel 2011 (Microsoft, Redmond, Wash.). All results are presented as mean±standard deviation.

[3] = 10 mg/kg every other day in miglyol, EAE day 60
[4] = 30 mg/kg every other day in miglyol
[5] = 30 mg/kg every other day in miglyol, d0, d30, d60, vs vehicle-treated EAE

Oc1ccc(C2(c3ccccc3F)CCC(F)(F)CC2)cc1 [AC-186]
Axonal densities / axon numbers (NF200), spinal cord [1, 3]: Neuroprotective effects; also recorded: significantly more axon numbers | Myelin staining intensity (MBP), spinal cord [1, 3]: a trend for somewhat higher MBP staining intensity | beta-APP expression (axonal damage), spinal cord [1, 3]: Neuroprotective effects; also recorded: a trend of less beta-APP staining | CD3 stained cells (T lymphocytes), spinal cord ([1]; 10 mg/kg in miglyol): neither AC-186 dose affected levels of CD3 staining; also recorded: no differences in the number of CD3 stained cells | CD45 immunoreactivity (all immune cells), spinal cord ([1]; 10 mg/kg in miglyol): reduced CD45 staining; also recorded: a reduction of CD45 expression | Iba-1 globoid cells (macrophage like cells), spinal cord ([1]; 10 mg/kg in miglyol): reduced Iba-1 globoid cell staining; also recorded: a significant reduction in the number of Iba-1 stained cells with globoid morphology | Axonal densities / axon numbers (NF200), spinal cord [1, 4]: significantly preserved axon numbers; also recorded: sparing of axons and myelin; also recorded: significantly more axon numbers | Myelin staining intensity (MBP), spinal cord [1, 4]: a trend for sparing myelin; also recorded: observed as significant; also recorded: a trend for somewhat higher MBP staining intensity | beta-APP expression (axonal damage), spinal cord [1, 4]: reduced axonal damage; also recorded: significantly less expression of beta-APP | CD3 stained cells (T lymphocytes), spinal cord ([1]; 30 mg/kg in miglyol): neither AC-186 dose affected levels of CD3 staining; also recorded: no differences in the number of CD3 stained cells | CD45 immunoreactivity (all immune cells), spinal cord ([1]; 30 mg/kg in miglyol): reduced CD45 staining; also recorded: lowering CD45 and Iba-1; also recorded: a reduction of CD45 expression | Iba-1 globoid cells (macrophage like cells), spinal cord ([1]; 30 mg/kg in miglyol): reduced Iba-1 globoid cell staining; also recorded: lowering CD45 and Iba-1; also recorded: a significant reduction in the number of Iba-1 stained cells with globoid morphology | Cerebellar atrophy (volume loss) [2, 5]: decreased the amount of volume loss; also recorded: less cerebellar atrophy | Cerebral cortex atrophy [2, 5]: atrophy rates were decreased; also recorded: less atrophy in the cerebral cortex | Whole brain atrophy (whole brain volume decrease over time) [2, 5]: significantly smaller; also recorded: less brain atrophy | Volume of the whole cerebellum ([2]; AC-186 30 mg/kg treated EAE mice, d60, mean, SD 1.1 mm^3): 51.8 mm^3 | Volume of the cerebral cortex ([2]; AC-186 30 mg/kg treated EAE mice, d60, mean, SD 1.6 mm^3): 70.8 mm^3 | Volume of the whole brain ([2]; AC-186 30 mg/kg treated EAE mice, d60, mean, SD 7.0 mm^3): 483 mm^3 | Difference in cerebellum volume vs vehicle treated EAE mice ([2]; d60, vehicle 50.0 mm^3): 3.5% | Difference in cerebral cortex volume vs vehicle treated EAE mice ([2]; d60, vehicle 68.9 mm^3): 5.0% | Difference in whole brain volume vs vehicle treated EAE mice ([2]; d60, vehicle 478 mm^3): 2.7%
